Source: article PMC12036814 (Angewandte Chemie (International Ed. in English), 2025)

What was measured:
SCARB1 = biological target: T1, SCARB1 (Homo sapiens, UniProt Q8WTV0); experiment: Microscale thermophoresis (MST) binding
T1 construct: purchased Hölzel Biotech SC1-H82E5
T1 sequence (Q8WTV0 1-552): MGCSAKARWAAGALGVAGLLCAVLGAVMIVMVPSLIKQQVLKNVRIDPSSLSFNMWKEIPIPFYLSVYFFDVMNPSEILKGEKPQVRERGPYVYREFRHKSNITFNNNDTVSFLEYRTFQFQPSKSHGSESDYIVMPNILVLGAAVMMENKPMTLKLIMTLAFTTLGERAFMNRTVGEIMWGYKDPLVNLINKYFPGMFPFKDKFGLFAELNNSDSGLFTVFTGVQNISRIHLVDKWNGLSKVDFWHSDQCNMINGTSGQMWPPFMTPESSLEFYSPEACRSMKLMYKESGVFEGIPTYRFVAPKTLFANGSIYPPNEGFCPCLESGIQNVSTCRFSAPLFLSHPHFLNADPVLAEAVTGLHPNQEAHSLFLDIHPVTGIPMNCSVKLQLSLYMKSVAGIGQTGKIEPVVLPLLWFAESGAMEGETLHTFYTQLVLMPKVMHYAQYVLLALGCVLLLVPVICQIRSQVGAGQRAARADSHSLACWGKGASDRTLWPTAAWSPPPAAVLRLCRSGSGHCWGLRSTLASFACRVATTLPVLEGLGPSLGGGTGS
Description: reaction was terminated by addition of 800 μL EtOAc+0.5% AcOH, 300 μL H2O and 100 μL internal standard (13,14-dihydro-15-ketoprostaglandin -d4, 300 pmol/sample, Cayman Chemical, Ann Arbor, USA, Cat# 10010606). Of the organic phase 600 μL was transferred into a fresh Eppendorf tube and the solvent removed in a SpeedVac. The residue was dissolved in 100 μL acetonitrile/ H2O (1:1) and measured with LC-MS/MS. Gradient: Solvent A = H2O + 0.1% formic acid, solvent B = acetonitrile + 0.5% formic acid, flow rate = 0 .4 mL/min, run length 6 min, gradient = 0 min 30% B, 1 min 30% B, 2 min 31.5% B, 2.1 min 95% B, 4 min 95% B, 4.1 min 30% B, 6 min 30% B. MS settings: Capillary = 3.0 kV, sampling cone = […], extraction cone […], source temperature = 100 °C, desolvat ion temperature = 350 °C, cone gas flow = 50.0 L/h, desolvation gas flow = 650.0 L/h, scan time = 0.250 s, inter-scan time = 0.020 s, mass range = 100 -800 Da. Masses of 15 -ketoprostaglandin (349.2 Da, collision energy = 21.0 eV), 13,14 -dihydro-15-ketoprostaglandin (351.2 Da, collision energy = 18.0 eV) and 13,14-dihydro-15-ketoprostaglandin (355.2 Da, collision energy = 10.0 eV) were set for MRM. The areas under the curve (AUC) were used to quantify 15 -keto-PGE2 and 13,14 -dihydro-15-keto-PGE2 levels by determining peak areas in relation to internal standard […]. The experiment was […]
Microscale thermophoresis (MST) was performed as follows: Monolith His -Tag Labeling Kit RED -tris-NTA 2nd Generation (NanoTemper Technologies, Munich, Germany, Cat# MO -L018) was used for KD determination as recommended by the purchaser. Briefly, SCARB1 ( Hölzel Biotech, Cologne, Germany, Cat# SC1-H82E5) concentration (50 nM) was adjusted in assay buffer and labelled by the RED -tris-NTA dye (100 nM). This mixture was added to compound dilution series (c = 1 mM to 30 nM) and measured using Monolith NT.115 (NanoTemper Technologies, Munich, Germany ). The experiment was performed once and analysed with the MO Affinity Analysis software (NanoTemper).
NUDT1 target validation efforts:
Recombinant NUDT1 expression & purification […]

AIFM1 = biological target: T2, AIFM1 (Homo sapiens, UniProt O95831); experiment: Gel-based labelling of recombinant AIFM1 spiked into HEK-293 lysate; format: binding; conditions: 5 μM probe, AIFM1 spiked in HEK-293 lysate
T2 construct: made in house; host or cells: E. coli Rosetta2
T2 sequence (O95831 102-613): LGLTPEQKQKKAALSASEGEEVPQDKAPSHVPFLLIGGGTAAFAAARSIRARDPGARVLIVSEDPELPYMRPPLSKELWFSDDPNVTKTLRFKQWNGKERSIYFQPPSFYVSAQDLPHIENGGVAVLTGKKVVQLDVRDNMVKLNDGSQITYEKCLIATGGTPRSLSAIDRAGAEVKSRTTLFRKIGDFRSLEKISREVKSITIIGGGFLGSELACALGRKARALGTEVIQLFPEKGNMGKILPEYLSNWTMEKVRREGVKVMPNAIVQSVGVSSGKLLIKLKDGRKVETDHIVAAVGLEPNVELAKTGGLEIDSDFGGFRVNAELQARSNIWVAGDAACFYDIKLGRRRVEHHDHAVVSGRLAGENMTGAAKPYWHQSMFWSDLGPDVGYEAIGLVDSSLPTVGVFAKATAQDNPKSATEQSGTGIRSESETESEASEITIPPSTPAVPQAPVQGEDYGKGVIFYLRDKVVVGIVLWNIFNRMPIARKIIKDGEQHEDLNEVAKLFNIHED
Description: AIFM1 expression & purification
Recombinant AIFM1 was expressed in a Rosetta2 E. coli strain. Bacterial growth was conducted in LB media supplemented with riboflavin and FAD shaking at 37°C and 180 rpm. Expression was induced with 1.0 mM IPTG and incubated for further 16 h before harvesting. Cells were harvested on ice in PBS and cell pellets stored at -20°C. Cells were lysed by French press and the 6xHis-tagged constructs were purified by Immobilized Metal Affinity Chromatography using Ni Sepharose (6 Fast Flow, GE). The centrifugation-cleared bacterial lysate was bound to beads in binding buffer (200 mM NaCl, 20 mM Tris/Cl pH = 7.4). […]
For gel-based fluorescence labelling of recombinant AIFM1, 1.7 µM recombinant protein was spiked - in to PBS or PBS -diluted HEK293 cell lysate ( 100 µg per reaction sample). […]
Click Master-mix (8 µL, 100 µM TAMRA-azide, Baseclick, Neuried, Germany, Cat# BCFA-008-10, 500 µM BTTAA ligand, Jena Bioscience, Jena, Germany, CLK -067, 1 mM CuSO4) was added and the CuAAC reaction started by addition of 2 µL of aq. sodium ascorbate (c end= 2 mM). […] Fluorescence scanning was performed using a Las-3000 fluorescence darkbox (Fujifilm, Minato, Japan) with a Fujinon VRF 43LMD Lens, 605DF40 filter and 520 nm EPI excitation wavelength and loading controls were developed with Coomassie stain afterwards. […]

HEK‐293 cells = experiment: Whole proteome analysis (LC-MS/MS, LFQ) of treated HEK-293 cells; conditions: 1 µM, 24 h, versus vehicle

| Kd (SCARB1; acquisition software MO.Control, read-out: binding affinity (Kd)) | binding to SCARB1 (SCARB1; aggregation/precipitation at high compound concentrations) | Compound | gel-based labelling of recombinant AIFM1 by probe (AIFM1) | pattern of downregulated proteins and affected pathways (HEK‐293 cells) |
| --- | --- | --- | --- | --- |
| 394 µM | weak binding | C#CCCC1(CCN2CCN(c3cc4c(cc3F)c(=O)c(C(=O)O)cn4C3CC3)CC2)N=N1 [Cipro P1] | strong fluorescent band corresponding to the molecular weight of AIFM1 | – |
| – | – | Cc1ccccc1CN1C(=O)C2=C(CCN(Cc3ccccc3)C2)N2CCN=C12 [ONC201] | – | strikingly similar to Ciprofloxacin treated cells |
